Reference: patent publication US12558396B2, “Use of cyclo(His-Pro) (CHP) for preventing, alleviating or treating peritoneal fibrosis” (NOVMETAPHARMA CO., LTD., priority 2019, dated 2026)

Key:
Assay type in all cases: in vivo, C57BL/6 male mice
[1] = system: animal model of peritoneal fibrosis; assay: Peritoneal tissue staining (PAS, Masson's trichrome, Sirius red) in animal model of peritoneal fibrosis; conditions: FIG. 1
Protocol: (§1) In order to create an animal model of peritoneal fibrosis, 7-week-old C57BL/6 male mice were purchased from Koatech and bred under constant conditions (temperature: 22±2° C., relative humidity: 55±10%, circadian cycle: 12 hours). Five animals were grouped into one group, and water and food were freely supplied in cages, and they were used in the experiment after acclimatization for one week before the experiment. After the acclimatization period, 0.1% chlorohexidine was administered by intraperitoneal injection every 3 days for 30 days to establish an animal model of peritoneal fibrosis. […] Group 3 was orally administrated with CHP at a concentration of 17.5 mg/kg (CG-PD+CHP(17.5)), and Group 4 was orally administered with CHP at a concentration of 35 mg/kg (CG-PD+CHP(35)) through 1 mL syringes every day for 30 days.
Among the experimental animals designed in Example 1-1, the peritoneum was obtained from the mice of the groups administered with the drug and 0.1% chlorohexidine for 30 days from the xyphoid process to the upper part of the pelvic cavity, and then sacrificed with whole blood. From the skin to the parietal peritoneum, the tissues of the left abdomen were excised in a size of 0.5×1.0 cm, and some were fixed in 10% formalin for immunostaining and then embedded in paraffin. The tissue sections were cut to a thickness of 4 μm and evaluated by performing Periodic acid-Schiff (PAS) staining, Masson's trichrome (MT) staining and Sirius Red staining to check the degree of peritoneal fibrosis. After observation with an optical microscope, photographs were taken (Olympus BX-50, Olympus Optical, Tokyo, Japan).

[2] = system: animal model of peritoneal fibrosis; assay: Immunohistochemical staining of ICAM-1 and F4/80 in peritoneum of animal model of peritoneal fibrosis; conditions: CHP 17.5 and 35 mg/kg orally, 30 days, vs CG-PD, FIG. 2
Protocol: as §1
Peritoneal tissues were extracted from the mice of each group of Example 1-1, fixed in 10% formalin for immunostaining and then embedded in paraffin. Using the streptavidin biotin peroxidase (Vector Laboratories) method, these were reacted with each of the anti-ICAM1 antibody and the […] at 4° C. for 16 hours, followed by color development with diaminobenzidine tetrahydrochloride (DAB) to confirm the expressions.

[3] = system: animal model of peritoneal fibrosis; assay: Western blot of collagen 1, αSMA, p16 and p21 in peritoneal tissue of animal model of peritoneal fibrosis; conditions: Western blot corrected by GAPDH, CHP 17.5 and 35 mg/kg orally, vs CG-PD, FIGS. 3a
Protocol: as §1
Isoflurane which is necessary for anesthesia and dissection of mice in each group of Example 1-1 was purchased from Hana Pharm, and VetEquip's RC2 Rodent Circuit Controller Anesthesia System was prepared. Phosphate-buffered saline (PBS) was purchased from Hyclone. In order to isolate the peritoneal tissue of the mice, the mice were anesthetized by respiratory anesthesia with 3 to 3.5% isoflurane. After blood was drawn from the heart of anesthetized mice, the peritoneal tissue was immediately removed, washed with PBS, and 50 mg of the peritoneal tissue was cut out and placed in 500 μL of RIPA buffer containing protease and phosphatase inhibitors, and it was crushed using IKA's T10 homogenizer. After standing on ice for 15 minutes, centrifugation was performed at 15000 rpm at 4° C. The supernatant was collected and the protein concentration was measured by BCA quantitation, and in the same amount of the samples, the protein was separated using the Bolt™ protein gel electrophoresis system, and then transferred to a nitrocellulose membrane. The membrane was blocked with 5% skim milk at room temperature for 1 hour, and then reacted with primary antibodies collagen 1, αSMA, NRF2, p16, p21 and GAPDH antibodies overnight at 4° C. After washing 3 times for 10 minutes with TBST, the reaction was performed with the secondary antibodies at room temperature for 1 hour. After washing 3 times for 10 minutes with TBST, the expression level was measured by reacting with ECL. The size of the appearing band was quantified using the ImageJ program, and each band size value was divided by the GAPDH band size value and corrected. Statistical significance was analyzed using Student's t-test statistical method with the peritoneal fibrosis control group (CG-PD) (*p<0.05, […], ***p<0.0005).

[4] = system: animal model of peritoneal fibrosis; assay: Real-time PCR of collagen 1, p21 and E-cadherin in peritoneal tissue of animal model of peritoneal fibrosis; conditions: real-time PCR corrected by GAPDH, CHP 17.5 and 35 mg/kg orally, vs CG-PD
Protocol: as §1
Isoflurane which is necessary for anesthesia and dissection of mice in each group of Example 1-1 was purchased from Hana Pharma, and VetEquip's RC2 Rodent Circuit Controller Anesthesia System was prepared. Phosphate-buffered saline (PBS) was purchased from Hyclone. In order to isolate the peritoneal tissue of the mice, the mice were anesthetized by respiratory anesthesia with 3 to 3.5% isoflurane. After blood was drawn from the heart of the anesthetized mice, the peritoneal tissue was immediately removed, 50 mg of the peritoneum was cut, 500 μL of NucleoZOL was added, and then it was crushed using IKA's T10 homogenizer. Subsequently, RNA was extracted according to NucleoZOL's total RNA isolation protocol, and cDNA was synthesized from 1 μg of RNA by reverse transcription polymerase chain reaction using the iScript cDNA synthesis kit. The synthesized cDNA was analyzed by real-time PCR with iQ SYBR Green Supermix using forward/reverse primer sets corresponding to each gene. The expression value of each gene was corrected by dividing by the expression value of GAPDH, a housekeeping gene. Statistical significance was analyzed using Student's t-test statistical method with the peritoneal fibrosis control group (CG-PD) (*p<0.05, […], ***p<0.0005).

O=C1N[C@@H](Cc2cnc[nH]2)C(=O)N2CCC[C@@H]12 [CHP, cyclo(His-Pro)]
thickened peritoneal layer (MT staining) ([1]; CHP 35 mg/kg administration group compared to 17.5 mg/kg administration group, oral, daily, 30 days): significantly reduced
deposition of immune cells (PAS staining) ([1]; CHP 17.5 and 35 mg/kg orally every day for 30 days, 0.1% chlorohexidine i.p. model, vs fibrosis control group (CG-PD)): significantly reduced in a concentration-dependent manner
accumulation of extracellular matrix (ECM) collagen (Sirius red staining) ([1]; CHP 17.5 and 35 mg/kg orally every day for 30 days): significantly reduced in a concentration-dependent manner
expression level of ICAM-1 (IHC) [2]: decreased
infiltration of immune cells (f4/80-positive cells, IHC) [2]: rapidly decreased
extracellular matrix collagen (collagen 1) protein expression ([3]; 3b): statistically significantly decreased
α-SMA protein expression ([3]; 3c): statistically significantly decreased
p16 protein expression ([3]; 3e): significantly reduced
p21 protein expression ([3]; 3d): significantly reduced
mRNA expression of extracellular matrix collagen 1 ([4]; FIG. 4a): decreased
p21 gene expression ([4]; FIG. 4b): significantly reduced
expression level of E-cadherin (gene) ([4]; FIG. 4c): significantly increased
